{"source": "patent US20230255903A1", "about": "“URINARY SYMPTOM THERAPEUTIC AGENT” (TAIHO PHARMACEUTICAL CO., LTD., priority 2020, published 2023)", "key": {"[1]": {"system": "patients having detrusor underactivity (DU)", "experiment": "Placebo-controlled double-blind comparative study: bladder voiding efficiency (BVE)", "format": "in vivo, human", "conditions": "for BVE, Value at Week 12, Mean(S.D.) / BVE, Change from Baseline at Week 12, Mean(S.D.): 200 mg orally twice a day for 12 weeks, FAS; for BVE change, Mean Difference = Compound 1-Placebo: Week 12; for Effect on voiding efficiency (in words): 12 weeks", "description": "(§1) Patients having detrusor underactivity (DU) and at least one voiding symptom associated with DU, such as abdominal straining to void, slow urinary stream, intermittent stream, residual urine, and reduced voiding efficiency, were used as subjects. Using such subjects, a placebo-controlled double-blind comparative study was performed to examine the effectiveness and safety of Compound 1 (this test was performed using patients also having overactive bladder as subjects). Under double-blind conditions (in which neither the doctor who prescribed the drug nor the patients knew which drug was administered to each patient), 200 mg of Compound 1 or a placebo was orally administered twice a day after a meal for 12 weeks to evaluate the effectiveness and safety of Compound 1.\nTo evaluate the effectiveness, BVE (bladder voiding efficiency) was evaluated. BVE (%) was calculated by the following formula:\nVoided volume/(Voided volume+Residual urine volume)×100.\nThe voided volume refers to the amount of urine per urination. The residual urine volume refers to the amount of urine that resides in the bladder as measured by transabdominal ultrasonography after completion of urination. The difference between the baseline (before administration) and the measurement value after 12 weeks of the administration was evaluated by using a paired t-test, whereas the difference in amount of BVE variation between the Compound 1 group and the placebo group was evaluated by using Student's t-test."}, "[2]": {"system": "patients having lower urinary tract disorders", "experiment": "Placebo-controlled double-blind comparative study: adverse events and adverse drug reactions", "format": "in vivo, human", "description": "as §1\nTo study the safety of Compound 1 in patients having lower urinary tract disorders, adverse events (any unfavorable medical event that occurred in patients who participated in this study; whether or not there is a causal relationship with the active ingredient) and adverse drug reactions (adverse events that are determined to “have a reasonable possibility” of a causal relationship with the drug) were measured."}, "[3]": {"conditions": "patients with a residual urine volume of 50 mL or more, N=29"}, "[4]": {"conditions": "patients with a residual urine volume of 100 mL or more, N=19"}, "[5]": {"conditions": "patients with a residual urine volume of less than 50 mL, N=19"}, "[6]": {"conditions": "200 mg orally twice a day for 12 weeks, All Treated Patients, N=52"}}, "note": "Several values for one entry are separate records, joined by “and”; a condition that tells them apart may be missing. Identical values can stand only once."}
{"compound": "CC1=C(CCCCCCCCCCCCCCCO)C(C)(C)CCC1=O", "note": "[Compound 1, 3-(15-hydroxypentadecyl)-2,4,4-trimethyl-2-cyclohexen-1-one]", "values": [{"measurement": "BVE, Value at Week 12, Mean(S.D.)", "setting": "[1]; entire group of patients having lower urinary tract disorders, N=48", "result": "66.79 (27.04) %"}, {"measurement": "BVE, Change from Baseline at Week 12, Mean(S.D.)", "setting": "[1]; entire group of patients, N=48", "result": "10.91% and 10.91 (26.48) %"}, {"measurement": "BVE change, Mean Difference = Compound 1-Placebo", "setting": "[1]; entire group of patients, Student's t-test p=0.178", "result": 8.49, "unit": "%"}, {"measurement": "Effect on voiding efficiency (in words)", "setting": "[1]; patients with a residual urine volume of 50 mL or more or of 100 mL or more", "result": "significantly increased the voiding efficiency"}, {"measurement": "BVE, Change from Baseline at Week 12, Mean(S.D.)", "setting": "[1]; [3]", "result": "18.41% and 18.41 (24.39) %"}, {"measurement": "BVE, Value at Week 12, Mean(S.D.)", "setting": "[1]; [3]", "result": "61.66 (30.45) %"}, {"measurement": "BVE change, Mean Difference = Compound 1-Placebo", "setting": "[1]; patients with a residual urine volume of 50 mL or more, Student's t-test p=0.031", "result": 15.53, "unit": "%"}, {"measurement": "BVE, Change from Baseline at Week 12, Mean(S.D.)", "setting": "[1]; [4]", "result": "23.57% and 23.57 (25.54) %"}, {"measurement": "BVE, Value at Week 12, Mean(S.D.)", "setting": "[1]; [4]", "result": "54.71 (33.78) %"}, {"measurement": "BVE change, Mean Difference = Compound 1-Placebo", "setting": "[1]; patients with a residual urine volume of 100 mL or more, Student's t-test p=0.025", "result": 21.47, "unit": "%"}, {"measurement": "BVE, Change from Baseline at Week 12, Mean(S.D.)", "setting": "[1]; [5]", "result": "−0.55 (25.99) %"}, {"measurement": "BVE, Value at Week 12, Mean(S.D.)", "setting": "[1]; [5]", "result": "74.62 (18.94) %"}, {"measurement": "Effect on voiding efficiency (in words)", "setting": "[1]; patients with a residual urine volume of less than 50 mL", "result": "did not significantly increase the voiding efficiency"}, {"measurement": "BVE change, Mean Difference = Compound 1-Placebo", "setting": "[1]; patients with a residual urine volume of less than 50 mL, Student's t-test p=0.853", "result": "−2.09", "unit": "%"}, {"measurement": "Adverse Drug Reactions, N (patients)", "setting": "[2]; [6]", "result": 0}, {"measurement": "Adverse Drug Reactions, incidence", "setting": "[2]; [6]", "result": 0.0, "unit": "%"}, {"measurement": "Adverse Events, N (patients)", "setting": "[2]; [6]", "result": 24}, {"measurement": "Adverse Events, incidence", "setting": "[2]; [6]", "result": 46.2, "unit": "%"}, {"measurement": "Safety and tolerability (in words)", "setting": "[2]; oral administration of 200 mg twice a day for 12 weeks", "result": "well tolerated"}]}
